Results: patent US8088819B2, “Derivatives of substituted 3-phenyl-1-(phenylthienyl)propan-1-ones and of 3-phenyl-1-(phenylfuranyl) propan-1-ones, preparation and use” (priority 2006, dated 2012)

Legend:
[1] = target: T1, hPPARgamma (Homo sapiens, UniProt P37231); assay: PPAR activation: Gal4-hPPARγ chimera luciferase transactivation in COS-7 cells, Method 2; assay type: cell-based; details: COS-7, 24 h, Method 2
T1 construct: expressed in transfected cells; host or cells: COS-7 (monkey kidney fibroblasts)
T1 sequence (P37231 238-503 limits assumed): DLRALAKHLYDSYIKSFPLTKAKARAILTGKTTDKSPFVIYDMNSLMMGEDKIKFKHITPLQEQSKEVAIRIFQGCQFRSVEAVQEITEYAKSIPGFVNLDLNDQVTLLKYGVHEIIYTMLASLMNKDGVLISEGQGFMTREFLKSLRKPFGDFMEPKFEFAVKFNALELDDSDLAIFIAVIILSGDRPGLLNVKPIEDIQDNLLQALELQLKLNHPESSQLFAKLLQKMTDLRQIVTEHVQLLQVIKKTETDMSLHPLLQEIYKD
Outline: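 Transactivation by a Gal4 DNA-binding domain–hPPARγ ligand-binding domain chimera with a Gal4(RE)-luciferase reporter, transfected into COS-7 cells (plasmid ratio 1/10).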

[2] = test system: dyslipidemic E2/E2 mice; assay: Plasma lipid assays and lipoprotein distribution in the E2/E2 mouse; assay type: in vivo
Procedure: The antilipemic and HDL-cholesterol synthesis stimulating properties of the compounds according to the invention were evaluated in vivo by assay of the plasma lipids, analysis of the distribution of cholesterol and of triglycerides in the various plasma lipoprotein fractions and measurement of the expression of the target genes of the PPARs in the liver and skeletal muscle after treatment of dyslipidemic E2/E2 mice with compound 2.
The murine model used is the ApoE2/E2 type mouse, a transgenic mouse for the E2 isoform of human apolipoprotein E (Sullivan P M et al., 1998). In humans, this apolipoprotein, a constituent of the low and very low density lipoproteins (LDL-VLDL), occurs in three isoforms E2, E3 and E4. The E2 form has a mutation on an amino acid in position 158, which greatly weakens the affinity of this protein for the LDL receptor. The clearance of the VLDLs is accordingly almost zero. There is then accumulation of low-density lipoproteins and mixed hyperlipidemia called type III (high cholesterol and triglycerides).
Apo E2/E2 transgenic mice were kept under a cycle of light and darkness of 12/12 hours at a constant temperature of 20±3° C. After acclimation for one week, the mice were weighed and put into groups of 6 animals selected so that the distribution of their body weights and of their plasma lipid levels determined for the first time before the experiment are uniform. The test compounds were suspended in carboxymethylcellulose (Sigma C4888) and administered by intragastric force feeding, at a rate of once per day for 13 days at the chosen dose. The animals had free access to water and to food (standard diet). At the end of the experiment, the animals were anesthetized after fasting for 4 hours, a blood sample was taken using anticoagulant (EDTA), then the mice were weighed and euthanased. The plasma was separated by centrifugation at 3000 rev/min for 20 minutes, and the samples were stored at +4° C.
The various lipid fractions (VLDL, LDL, HDL) of the plasma were separated by gel filtration chromatography. The concentrations of cholesterol and of triglycerides were then measured in each fraction by enzyme assays (bioMérieux-Lyon-France) following the supplier's recommendations.
The plasma concentrations of total cholesterol were measured by enzyme assays (bioMérieux-Lyon-France) following the supplier's recommendations.
The low-density lipoproteins (VLDL and LDL) were precipitated with phosphotungstate. The precipitate was removed by centrifugation. The HDL-cholesterol present in the supernatant was quantified by enzyme assays (bioMérieux-Lyon-France) following the supplier's recommendations.

[3] = 50 mpk oral, 7 and 13 days, vs control animals

## CC(C)(Oc1ccc(CCC(OCc2ccccc2)c2ccc(-c3ccc(C(F)(F)F)cc3)s2)c(Cl)c1Cl)C(=O)O (stereo not shown) [Compound 7, 2-(4-(3-(benzyloxy)-3-(5-(4-(trifluoromethyl)phenyl)thien-2-yl)propyl)-2,3-dichlorophenoxy)-2-methylpropanoic acid]
[1]; maximum percentage response relative to the reference rosiglitazone, read-out: hPPARgamma % max
  Emax: 40%
[1]; 1% Ultroser, read-out: hPPARgamma EC50
  EC50: 1700 nM

## CC(C)(Oc1ccc(CCC(=O)c2ccc(-c3ccc(C(F)(F)F)cc3)s2)c(Cl)c1Cl)C(=O)O [Compound 2, 2-(2,3-dichloro-4-(3-oxo-3-(5-(4-(trifluoromethyl)phenyl)thien-2-yl)propyl)phenoxy)-2-methylpropanoic acid]
[2]; [3]
  plasma HDL-cholesterol level: increased significantly
  plasma total cholesterol level: lowered significantly
[2]; 50 mpk, 13 days
  level of triglycerides present in the VLDL: lowered
  plasma HDL-cholesterol level (distribution of cholesterol in plasma lipoprotein fractions): increased
  plasma levels of LDL and VLDL (distribution of cholesterol in plasma lipoprotein fractions): significant decrease
